Data reported in patent publication US20260000763A1, “Methods of Manufacturing Therapeutic Cells” (The Board of Trustees of the Leland Stanford Junior …, priority 2022, published 2026).
Entries after “also recorded” stand apart in the source; their conditions may differ.

Legend:
[1] = tested on: Nalm6-GD2+ leukemia cells; test: Nalm6-GD2+ leukemia in NSG mice treated with HA CAR T cells; format: in vivo; conditions: 2×10^6 HA CAR T cells IV day 3, expanded in inosine vs regular media
Description: A: NSG mice were injected IV with 1×10^6 Nalm6 leukemia cells at day 0, and then 0.2×10^6 CD19.28 CAR T cells, generated in regular or inosine-supplemented media were given IV on day 3. Tumor progression was monitored using bioluminescent imaging. Scales are normalized for all time points. Data are mean+s.e.m. of n=5 mice per group. […] B: NSG mice were injected IV with 1×10^6 Nalm6-GD2+ leukemia cells at day 0, and then 2×10^6 HA CAR T cells, generated in regular or inosine-containing media were given IV on day 3. Tumor progression was monitored using bioluminescent imaging. Scales are normalized for all time points. Data are mean+s.e.m. of n=5 mice per group. […] C: Overall survival. N=5 mice per group. Survival curves were compared using the log-rank Mantel-Cox test. D: NSG mice were injected intramuscular with 1×10^6 143b tumor cells. 4 days later the mice were injected with 1×10^7 Her2, Her2 grown in INO+ media or mock T cells IV. Tumor growth was monitored by caliper measurements. […] N=3-5 mice per group. Survival curves were compared using the log-rank Mantel-Cox test.
In this example, the in vivo anti-tumor potency of CAR T cells manufactured in the presence or absence of inosine was assessed. […] Three days post tumor injection, mice were evaluated and normalized for engraftment using bioluminescent imaging. […]

[2] = tested on: HA-CAR T cells; test: Expansion of HA-CAR T cells in media with glucose and/or inosine; inosine dose response; format: cell-based, human
[3] = tested on: GD2-CAR T cells; test: GD2-CAR T cells manufactured in TexMACS with increasing concentrations of INO; format: cell-based
Description: FIG. 13A-13H: Clinical scale manufacturing of clinical grade GD2-CAR T cells using media containing inosine, improves CAR product quality. A: Schematic of large-scale manufacturing of GD2.bbz-CAR+ T cells in a semi-closed G-Rex system in glucose-or inosine-containing media. 7 days post-activation, transduction efficiency, percentage of viable cells, and CD4/CD8 ratio of GD2+ cells were assessed by flow cytometry. […] B: Expansion of total viable T cells manufactured in control (black) vs. inosine (green)-containing media and (Right) corresponding number of CAR+ cells at day 7. […] C: IL-2 and IFNg secretion by CAR T cells stimulated for 24 hrs with 143b, mg63.3 or Nalm6-GD2 tumor lines. […] D: NSG mice were injected with 1×10^6 Nalm6 leukemia cells. On day 3 post-tumor injection, 2×10^6 of mock or GD2.bbz-CAR T cells manufactured in the presence of inosine or in regular media were transferred intravenously. Tumor growth was monitored by bioluminescent imaging. […] P values determined at day 43 by using Mann-Whitney test. […] E: Concentration of CD45+ T cells detected in blood of mice at D33 post-CAR T cell injection. […] F: Schematic of the experimental design. G: GD2.bbz-CAR T cells grown in media containing indicated inosine concentration between day 3 and day 10 post-activation and stimulated with 143b tumor. IL-2 and IFNg secretion after 24 hrs of co-culture was measured. Data are mean±s.d. of duplicate or triplicate wells. Representative of n=3 donors shown. […] Reprograming is due to an increase in glutaminolysis and polyamine synthesis and downregulation of CD73, FOXP3, A2aR and c-AMP response transcription factors.
Finally, to test compatibility of adding INO to GMP-grade culture media that contains glucose, GD2-CAR T cells were manufactured in TexMACS™ with increasing concentrations of INO (FIG. 13F).

[4] = tested on: HA-CAR T cells; test: Improvement index overlapped with proliferation to set a therapeutic window for inosine; format: cell-based, human; conditions: 11 mM glucose plus 0.5-11 mM inosine tested; improvement index vs proliferation
Description: FIG. 7F: Improvement index calculation scheme.
FIG. 7G: Scatter plot showing correlation between improvement index (y-axis-in black) or proliferation (y-axis-in red) and inosine concentration (x-axis). […] N=2-6 donors from independent experiments.
To establish a therapeutic window for inosine addition, an improvement index was calculated. The index represents a sum of fold change in frequency of CCR7+CD8+ and CD62L+CD8+ at the base line and fold change in IL-2 and IFNγ secretion after 24 hours stimulation with Nalm6-GD2 tumor line by HA-CAR T cells manufactured in 11 mM of glucose and various concentrations of inosine (0.5-11 mM) as compared to control (FIG. 7F).

## O=c1[nH]cnc2c1ncn2[C@@H]1O[C@H](CO)[C@@H](O)[C@H]1O [inosine, Inosine]
[1]
  survival: improved
  tumor control: improved
[2]; 0-11 mM INO in RPMI containing 11 mM glucose, without a plateau
  dose response on diminished proliferation, increased CD62L expression and increased IFNγ production: clear dose dependent effect
[2]; day 4 to day 10, 11 mM INO in presence or absence of 11 mM glucose, listed as INO
  expansion of HA-CAR T cells: diminished expansion; also recorded: significantly reduced expansion
[3]; INO 11 mM vs lower concentrations
  antigen induced cytokine production: trend toward greater antigen induced cytokine production
[3]; TexMACS (contains glucose) with increasing INO
  cell proliferation: significantly decreased cell proliferation
[3]; TexMACS with increasing INO
  CAR T cell viability: no changes
[3]; challenged with 143b cells, 24 hrs, INO day 3 to day 10
  secretion of IL-2 and IFNg: dose-dependent increase
[3]; vs control cells
  CD62L expression: increased CD62L expression
[4]
  inosine concentration range improving phenotype and function without complete inhibition of expansion (therapeutic window): 2.75 to 11 mM
